Measurements as given in ChEMBL document CHEMBL5365544, “Design, synthesis of auristatins-glucuronide conjugates targeting the β-glucuronidase in tumor microenvironment” (Bioorg Med Chem Lett, 2023).
Activity calls are given as the source filed them. No cut-off for these calls is given here.

Assays:
[1] = Chemical stability of compound in phosphate buffer at pH 7.4 for 37 degC assessed as degradation measured after 48 hrs by HPLC method; format: physicochemical; conditions: pH 7.4, 48 h
[2] = Stability of compound in bovine serum solution for 37 degC assessed as degradation measured after 48 hrs by HPLC method; format: ADME, cell-free, Bos taurus; conditions: cattle
[3] = system: HeLa; assay: Antiproliferative activity against human HeLa cells assessed as inhibition of cell growth; format: functional, cell-based
[4] = system: A549; assay: Antiproliferative activity against human A549 cells assessed as inhibition of cell growth; format: functional, cell-based
[5] = system: HCT-116; assay: Antiproliferative activity against human HCT-116 cells assessed as inhibition of cell growth; format: functional, cell-based
[6] = system: HeLa; assay: Antiproliferative activity against human HeLa cells assessed as inhibition of cell growth in presence of beta-glucuronidase; format: functional, cell-based
[7] = system: A549; assay: Antiproliferative activity against human A549 cells assessed as inhibition of cell growth in presence of beta-glucuronidase; format: functional, cell-based
[8] = system: HCT-116; assay: Antiproliferative activity against human HCT-116 cells assessed as inhibition of cell growth in presence of beta-glucuronidase; format: functional, cell-based
[9] = Chemical stability of compound in phosphate buffer at pH 7.4 for 37 degC assessed as drug degradation measured after 20 mins in presence of beta-glucuronidase by HPLC method relative to control; format: physicochemical; conditions: phosphate buffer with beta-glucuronidase, read-out: Drug degradation
[10] = Chemical stability of compound in phosphate buffer at pH 7.4 for 37 degC assessed as drug degradation measured after 2 hrs in presence of beta-glucuronidase by HPLC method; format: physicochemical; conditions: pH 7.4, 2 h
[11] = system: HCT-116; assay: Antitumor activity against human HCT-116 cells xenografted in iv dosed BALB/C mouse assessed as tumor growth inhibition administered every 5 days; format: functional, organism-based; conditions: dose 2-4 mg/kg, time 5.0 day
[12] = Toxicity in BALB/c mouse assessed as body weight loss at 2 to 4 mg/kg, iv administered every 3 days; format: organism-based; conditions: in vivo, 72 h, dose 2-4 mg/kg, time 3 day
[13] = Toxicity in BALB/c mouse assessed as side effect at 2 to 4 mg/kg, iv administered every 3 days; format: organism-based; conditions: in vivo, 72 h, dose 2-4 mg/kg, time 3 day
[14] = system: HCT-116; assay: Antitumor activity against human HCT-116 cells xenografted in BALB/C mouse assessed as tumor growth inhibition at 0.5 mg/kg, iv administered every 5 days; format: functional, organism-based; conditions: time 5.0 day

Row | Stability [1] | Stability [2] | IC50 [3] [nM] | IC50 [4] [nM] | IC50 [5] [nM] | IC50 [6] [nM] | IC50 [7] [nM] | IC50 [8] [nM] | Compound | metabolised at 20 min [9] [%] | Stability [10] | Activity [11] | Activity [12] | Activity [13] | Activity [14]
1 | Stable | Stable | 990 | 1020 | 1110 | 8.3 | 9.68 | 9.11 | CC[C@H](C)[C@@H]([C@@H](CC(=O)N1CCC[C@H]1[C@H](OC)[C@@H](C)C(=O)N[C@H](C)[C@@H](OC(=O)N(C)CCN(C)C(=O)OCc1ccc(O[C@@H]2O[C@H](C(=O)O)[C@@H](O)[C@H](O)[C@H]2O)c([N+](=O)[O-])c1)c1ccc(F)cc1)OC)N(C)C(=O)[C@@H](NC(=O)[C@H](C(C)C)N(C)C)C(C)C | – | – | – | – | – | –
2 | Stable | Stable | 1650 | 1520 | 1490 | 5.73 | 6.38 | 6.61 | CC[C@H](C)[C@@H]([C@@H](CC(=O)N1CCC[C@H]1[C@H](OC)[C@@H](C)C(=O)N[C@H](C)[C@@H](OC(=O)N(C)CCN(C)C(=O)OCc1ccc(O[C@@H]2O[C@H](C(=O)O)[C@@H](O)[C@H](O)[C@H]2O)c([N+](=O)[O-])c1)c1ccccc1)OC)N(C)C(=O)[C@@H](NC(=O)[C@H](C(C)C)N(C)C)C(C)C | 48 | Unstable | Dose-Dependent Effect | Non-Toxic | – | –
3 | – | – | 4.87 | 5.52 | 6.13 | – | – | – | CC[C@H](C)[C@@H]([C@@H](CC(=O)N1CCC[C@H]1[C@H](OC)[C@@H](C)C(=O)N[C@H](C)[C@@H](O)c1ccc(F)cc1)OC)N(C)C(=O)[C@@H](NC(=O)[C@H](C(C)C)N(C)C)C(C)C | – | – | – | – | – | –

Row | Compound | Stability [1] | Stability [2] | IC50 [3] [nM] | IC50 [4] [nM] | IC50 [5] [nM] | IC50 [6] [nM] | IC50 [7] [nM] | IC50 [8] [nM] | metabolised at 20 min [9] [%] | Stability [10] | Activity [11] | Activity [12] | Activity [13] | Activity [14]
4 | CC[C@H](C)[C@@H]([C@@H](CC(=O)N1CCC[C@H]1[C@H](OC)[C@@H](C)C(=O)N[C@H](C)[C@@H](O)c1ccccc1)OC)N(C)C(=O)[C@@H](NC(=O)[C@H](C(C)C)N(C)C)C(C)C | – | – | 4.89 | 5.03 | 4.96 | – | – | – | 37 | Unstable | – | – | Non-Toxic | Active
